This note sets out measurements from patent US10040781B2, “Tank-binding kinase inhibitor compounds” (Gilead Sciences, Inc., priority 2014, dated 2018).

In experiment [1] the target is TBK1 (Homo sapiens (Human), UniProt Q9UHD2). Kind of experiment: TBK1 TR-FRET enzymatic assay.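 Note: phosphorylation of a biotinylated Ser/Thr peptide by purified full-length recombinant TBK1, read by TR-FRET after 240 min at 25 °C, IC50 is the geometric mean of at least four runs.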
The target in experiment [2] is IKKε (Homo sapiens (Human), UniProt Q14164). The experiment can be described thus: IKKε TR-FRET enzymatic assay. The class given is biochemical. As to conditions: read-out: IKKe IC50.
For experiment [3], the target named is hJAK2 (Homo sapiens (Human), UniProt O60674). Kind of experiment: hJAK2 LANCE TR-FRET enzymatic assay. The experiment is classed as biochemical. As to conditions: read-out: JAK2 IC50.
Where [4] appears, read: TR-FRET, 2×Km ATP, geometric mean of minimum four determinations.

Like-named read-outs stand apart in the source and are kept apart here. Bounds are passed on as bounds.

IKKε, sequence (Q14164 whole entry): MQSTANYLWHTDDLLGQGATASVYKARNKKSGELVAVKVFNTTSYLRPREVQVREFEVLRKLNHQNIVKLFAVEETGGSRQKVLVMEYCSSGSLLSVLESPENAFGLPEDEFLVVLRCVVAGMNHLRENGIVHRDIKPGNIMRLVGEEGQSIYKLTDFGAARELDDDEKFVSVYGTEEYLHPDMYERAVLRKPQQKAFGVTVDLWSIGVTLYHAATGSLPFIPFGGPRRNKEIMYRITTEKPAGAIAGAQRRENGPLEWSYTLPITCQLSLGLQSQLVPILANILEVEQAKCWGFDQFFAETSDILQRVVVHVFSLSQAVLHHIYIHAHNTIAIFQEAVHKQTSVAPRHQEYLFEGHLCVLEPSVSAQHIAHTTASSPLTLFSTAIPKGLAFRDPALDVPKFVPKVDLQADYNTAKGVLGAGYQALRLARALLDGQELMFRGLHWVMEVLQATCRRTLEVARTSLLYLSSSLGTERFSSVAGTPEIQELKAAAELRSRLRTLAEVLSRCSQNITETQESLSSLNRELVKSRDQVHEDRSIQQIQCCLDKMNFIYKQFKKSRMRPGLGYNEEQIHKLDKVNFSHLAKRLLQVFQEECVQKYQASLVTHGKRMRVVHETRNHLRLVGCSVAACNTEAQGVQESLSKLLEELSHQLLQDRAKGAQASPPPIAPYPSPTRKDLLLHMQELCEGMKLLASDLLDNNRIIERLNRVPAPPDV
hJAK2, sequence (O60674 whole entry): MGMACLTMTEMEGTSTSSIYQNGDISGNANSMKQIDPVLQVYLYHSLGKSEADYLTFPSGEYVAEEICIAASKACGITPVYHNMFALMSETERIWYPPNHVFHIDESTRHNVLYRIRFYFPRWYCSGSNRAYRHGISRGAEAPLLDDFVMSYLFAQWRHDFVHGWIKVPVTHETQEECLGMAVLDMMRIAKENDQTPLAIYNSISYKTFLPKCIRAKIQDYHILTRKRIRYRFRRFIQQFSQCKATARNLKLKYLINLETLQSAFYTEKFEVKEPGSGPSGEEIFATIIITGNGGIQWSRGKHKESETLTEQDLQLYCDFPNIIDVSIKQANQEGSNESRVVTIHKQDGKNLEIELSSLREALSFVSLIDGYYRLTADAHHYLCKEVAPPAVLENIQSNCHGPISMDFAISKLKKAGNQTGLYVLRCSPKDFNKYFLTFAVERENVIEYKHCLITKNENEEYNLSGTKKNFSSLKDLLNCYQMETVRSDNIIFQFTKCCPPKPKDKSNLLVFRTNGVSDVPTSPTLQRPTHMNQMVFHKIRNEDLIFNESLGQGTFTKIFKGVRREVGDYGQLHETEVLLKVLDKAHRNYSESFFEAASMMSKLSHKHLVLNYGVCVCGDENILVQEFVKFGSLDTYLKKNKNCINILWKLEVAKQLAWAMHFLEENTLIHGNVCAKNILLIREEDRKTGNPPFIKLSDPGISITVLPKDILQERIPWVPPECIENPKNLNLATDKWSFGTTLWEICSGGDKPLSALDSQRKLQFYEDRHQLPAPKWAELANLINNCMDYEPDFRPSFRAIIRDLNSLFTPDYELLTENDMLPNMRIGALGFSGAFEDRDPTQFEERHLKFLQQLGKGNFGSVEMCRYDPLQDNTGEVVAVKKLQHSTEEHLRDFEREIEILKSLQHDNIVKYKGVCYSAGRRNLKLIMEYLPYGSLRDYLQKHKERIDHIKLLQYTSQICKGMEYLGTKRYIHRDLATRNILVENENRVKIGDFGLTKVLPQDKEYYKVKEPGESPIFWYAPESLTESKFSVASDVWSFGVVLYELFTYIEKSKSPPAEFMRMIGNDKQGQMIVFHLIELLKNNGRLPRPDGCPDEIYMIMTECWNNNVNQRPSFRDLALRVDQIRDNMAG
TBK1, sequence (Q9UHD2 whole entry): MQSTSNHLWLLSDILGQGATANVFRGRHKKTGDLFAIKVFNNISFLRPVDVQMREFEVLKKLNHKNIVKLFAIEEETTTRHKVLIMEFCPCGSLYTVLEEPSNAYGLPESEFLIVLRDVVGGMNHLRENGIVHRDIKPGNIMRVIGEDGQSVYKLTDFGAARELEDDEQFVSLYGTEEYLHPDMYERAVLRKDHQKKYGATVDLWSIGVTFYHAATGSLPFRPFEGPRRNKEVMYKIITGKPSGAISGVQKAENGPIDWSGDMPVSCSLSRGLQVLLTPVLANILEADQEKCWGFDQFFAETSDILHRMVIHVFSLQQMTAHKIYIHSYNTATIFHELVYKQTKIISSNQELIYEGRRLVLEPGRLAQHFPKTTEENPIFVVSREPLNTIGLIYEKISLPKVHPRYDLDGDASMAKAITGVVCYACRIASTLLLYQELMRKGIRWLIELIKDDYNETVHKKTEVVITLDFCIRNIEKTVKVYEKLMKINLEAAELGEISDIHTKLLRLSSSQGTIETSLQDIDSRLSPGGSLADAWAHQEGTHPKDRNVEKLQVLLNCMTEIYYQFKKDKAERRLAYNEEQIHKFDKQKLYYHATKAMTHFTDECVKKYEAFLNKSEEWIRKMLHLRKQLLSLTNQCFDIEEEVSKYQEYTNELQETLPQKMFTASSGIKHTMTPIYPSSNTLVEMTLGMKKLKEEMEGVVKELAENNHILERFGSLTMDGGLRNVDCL

As to `COc1cc(Nc2ncnc(-c3ccc(OC4CCOCC4)c(C#N)c3)n2)cc(F)c1N1CCN(C2COC2)CC1` [Example 61, 5-(4-((3-fluoro-5-methoxy-4-(4-(oxetan-3-yl)piperazin-1-yl)phenyl)amino)-1,3,5-triazin-2-yl)-2-((tetrahydro-2H-pyran-4-yl)oxy)benzonitrile], the IC50 in experiment [1] stood at 2 nM; in experiment [2], 7 nM. `C[C@H](O)C(=O)N1CC[C@H](Oc2ccc(-c3ncnc(Nc4ccc(N5CCC(C)(O)CC5)cc4)n3)cc2C#N)[C@H](F)C1` [Example 355, 2-(((3R,4S)-3-fluoro-1-((S)-2-hydroxypropanoyl)piperidin-4-yl)oxy)-5-(4-((4-(4-hydroxy-4-methylpiperidin-1-yl)phenyl)amino)-1,3,5-triazin-2-yl)benzonitrile]: the IC50 in experiment [1] turned out to be 4 nM; in experiment [2] it was 2 nM. With `N#Cc1cc(-c2ncnc(Nc3cnn(C(F)F)c3)n2)ccc1O[C@H]1CCN(C(=O)[C@@H](O)CO)C[C@H]1F` [Example 456], the IC50 in experiment [1] was found to be 4 nM; in experiment [2] (setting [4]) it was 7 nM. Consider `N#Cc1cc(-c2ncnc(Nc3ccc(N4CCN(C5COC5)CC4)cc3)n2)ccc1O[C@H]1CCN(C(=O)c2cnn[nH]2)CC1(F)F` [Example 165, (S)-2-((3,3-difluoro-1-(1H-1,2,3-triazole-5-carbonyl)piperidin-4-yl)oxy)-5-(4-((4-(4-(oxetan-3-yl)piperazin-1-yl)phenyl)amino)-1,3,5-triazin-2-yl)benzonitrile], for which the concentration for half-maximal inhibition (IC50) in experiment [1] was found to be 2 nM; in experiment [2], 1 nM. On to `N#Cc1cc(-c2ncnc(Nc3ccc(N4CCN(C5COC5)CC4)cc3)n2)ccc1O[C@H]1CCN(C(=O)c2cnc(N)cn2)C[C@H]1F` [Example 341, 2-(((3R,4S)-1-(5-aminopyrazine-2-carbonyl)-3-fluoropiperidin-4-yl)oxy)-5-(4-((4-(4-(oxetan-3-yl)piperazin-1-yl)phenyl)amino)-1,3,5-triazin-2-yl)benzonitrile], for which the IC50 in experiment [1] is 2 nM; in experiment [2] it was 1 nM.

In the case of `C[C@H](O)C(=O)N1CC[C@H](Oc2ccc(-c3ncnc(Nc4cnn(C(F)F)c4)n3)cc2C#N)[C@H](F)C1` [Example 457, 5-(4-((1-(difluoromethyl)-1H-pyrazol-4-yl)amino)-1,3,5-triazin-2-yl)-2-(((3R,4S)-3-fluoro-1-((S)-2-hydroxypropanoyl)piperidin-4-yl)oxy)benzonitrile], the 50% inhibitory concentration (IC50) in experiment [1] came to 13 nM; in experiment [2] (setting [4]) it was 20 nM.

For `CN1CC2(CCN(c3ccc(-c4ncnc(Nc5ccc(N6CCN(C7COC7)CC6)cc5)n4)cc3C#N)CC2)C1` [Example 209, 2-(2-methyl-2,7-diazaspiro[3.5]nonan-7-yl)-5-(4-((4-(4-(oxetan-3-yl)piperazin-1-yl)phenyl)amino)-1,3,5-triazin-2-yl)benzonitrile], the figures for the 50% inhibitory concentration (IC50) in experiment [1] and in experiment [2] were 49 nM and 213 nM, respectively. For `N#Cc1cc(-c2ncnc(Nc3ccc(N4CCN(C5COC5)CC4)cc3)n2)ccc1O[C@H]1CCN(C(=O)Cn2cnnc2)C[C@H]1F` [Example 377, 2-(((3R,4S)-1-(2-(4H-1,2,4-triazol-4-yl)acetyl)-3-fluoropiperidin-4-yl)oxy)-5-(4-((4-(4-(oxetan-3-yl)piperazin-1-yl)phenyl)amino)-1,3,5-triazin-2-yl)benzonitrile] the same measures were 37 nM and 129 nM.

Take `Cc1nnsc1COc1ccc(-c2ncnc(Nc3ccc(N4CCN(C5COC5)CC4)cc3)n2)cc1C#N` [Example 284, 2-((4-methyl-1,2,3-thiadiazol-5-yl)methoxy)-5-(4-((4-(4-(oxetan-3-yl)piperazin-1-yl)phenyl)amino)-1,3,5-triazin-2-yl)benzonitrile]: the IC50 in experiment [1] is 475 nM; in experiment [2], not below 1000 nM. Regarding `COc1cc(Nc2ncnc(-c3ccc(O[C@H]4CCN(C(=O)[C@@H](O)CO)CC4(F)F)c(C#N)c3)n2)ccc1N1CCN(C2COC2)CC1` [Example 577, 2-(((S)-1-((S)-2,3-dihydroxypropanoyl)-3,3-difluoropiperidin-4-yl)oxy)-5-(4-((3-methoxy-4-(4-(oxetan-3-yl)piperazin-1-yl)phenyl)amino)-1,3,5-triazin-2-yl)benzonitrile], the 50% inhibitory concentration (IC50) came out at 2 nM in experiment [1] and 1 nM in experiment [2] (setting [4]).

As for `N#Cc1cc(-c2ncnc(Nc3ccc(N4CCN(C5COC5)CC4)cc3)n2)ccc1O[C@@H]1CCOC1` [Example 29, (R)-5-(4-((4-(4-(oxetan-3-yl)piperazin-1-yl)phenyl)amino)-1,3,5-triazin-2-yl)-2-((tetrahydrofuran-3-yl)oxy)benzonitrile], the IC50 is 5 nM in experiment [1] and 32 nM in experiment [2]. For the compound `N#Cc1cc(-c2ncnc(Nc3ccc(N4CCN(C5COC5)CC4)cc3)n2)ccc1O[C@H]1CCN(C(=O)c2nc(=O)[nH][nH]2)C[C@H]1F` [Example 437, 2-(((3R,4S)-3-fluoro-1-(5-oxo-2,5-dihydro-1H-1,2,4-triazole-3-carbonyl)piperidin-4-yl)oxy)-5-(4-((4-(4-(oxetan-3-yl)piperazin-1-yl)phenyl)amino)-1,3,5-triazin-2-yl)benzonitrile], the IC50 in experiment [1] is 4 nM; in experiment [2] (setting [4]), 2 nM.

For `N#Cc1cc(-c2ncnc(Nc3ccc(N4CCN(C5COC5)CC4)cc3)n2)ccc1O[C@@H]1CCN(C(=O)CO)C[C@H]1F` [Example 235, 2-(((3R,4R)-3-fluoro-1-(2-hydroxyacetyl)piperidin-4-yl)oxy)-5-(4-((4-(4-(oxetan-3-yl)piperazin-1-yl)phenyl)amino)-1,3,5-triazin-2-yl)benzonitrile], in experiment [2], the IC50 was found to be 5 nM. For `N#Cc1cc(-c2ncnc(Nc3ccc(N4CCOCC4)cc3)n2)ccc1NC(=O)[C@@H]1CCCN1` [Example 37, (S)—N-(2-cyano-4-(4-((4-morpholinophenyl)amino)-1,3,5-triazin-2-yl)phenyl)pyrrolidine-2-carboxamide], the 50% inhibitory concentration (IC50) in experiment [1] is 203 nM; in experiment [2], 305 nM. For `CNC(=O)c1ccc(Nc2ncnc(-c3ccc(OC4CCOCC4)c(C#N)c3)n2)cc1` [Example 14, 4-((4-(3-cyano-4-((tetrahydro-2H-pyran-4-yl)oxy)phenyl)-1,3,5-triazin-2-yl)amino)-N-methylbenzamide], the results for the IC50 in experiment [1] and in experiment [2] were 4 nM and 21 nM, respectively. On to `N#Cc1cc(-c2ncnc(Nc3ccc(C4CCN(C5COC5)CC4)cc3)n2)ccc1OC1CCS(=O)(=O)CC1` [Example 270, 2-((1,1-dioxidotetrahydro-2H-thiopyran-4-yl)oxy)-5-(4-((4-(1-(oxetan-3-yl)piperidin-4-yl)phenyl)amino)-1,3,5-triazin-2-yl)benzonitrile], for which the 50% inhibitory concentration (IC50) in experiment [2] came to 43 nM. As to `N#CCC(=O)N1CC[C@H](Oc2ccc(-c3ncnc(Nc4ccc(N5CCN(C6COC6)CC5)cc4)n3)cc2C#N)C(F)(F)C1` [Example 160, (S)-2-((1-(2-cyanoacetyl)-3,3-difluoropiperidin-4-yl)oxy)-5-(4-((4-(4-(oxetan-3-yl)piperazin-1-yl)phenyl)amino)-1,3,5-triazin-2-yl)benzonitrile], the half-inhibitory concentration (IC50) was 3 nM in experiment [1] and 2 nM in experiment [2]. `N#Cc1cc(-c2ncnc(Nc3ccc(N4CCN(C5COC5)CC4)cc3)n2)ccc1O[C@@H]1CCN(C(=O)CO)C[C@@H]1F` [Example 224, 2-(((3S,4R)-3-fluoro-1-(2-hydroxyacetyl)piperidin-4-yl)oxy)-5-(4-((4-(4-(oxetan-3-yl)piperazin-1-yl)phenyl)amino)-1,3,5-triazin-2-yl)benzonitrile]: in experiment [2], the IC50 was determined as 23 nM. Still for that read-out and setting: for `N#Cc1cc(-c2ncnc(Nc3ccc(N4CCN(C5COC5)CC4)cc3)n2)ccc1O[C@@H]1CCN(C(=O)CO)C[C@@H]1F` (racemic) [Example 218, 2-((cis-3-fluoro-1-(2-hydroxyacetyl)piperidin-4-yl)oxy)-5-(4-((4-(4-(oxetan-3-yl)piperazin-1-yl)phenyl)amino)-1,3,5-triazin-2-yl)benzonitrile] the value was 3 nM. With `C[C@H]1CN(C)CCN1c1ccc(Nc2ncnc(-c3ccc(O[C@H]4CCN(C(=O)CO)C[C@H]4F)c(C#N)c3)n2)cc1` [Example 500, 5-(4-((4-((S)-2,4-dimethylpiperazin-1-yl)phenyl)amino)-1,3,5-triazin-2-yl)-2-(((3R,4S)-3-fluoro-1-(2-hydroxyacetyl)piperidin-4-yl)oxy)benzonitrile], the half-maximal inhibitory concentration (IC50) in experiment [1] was 2 nM; in experiment [3] it was 182 nM. For `N#Cc1cc(-c2ncnc(Nc3ccc(C4CCN(C5COC5)CC4)cc3)n2)ccc1O[C@H]1CCN(C(=O)CO)C[C@H]1F` [Example 305, 2-(((3R,4S)-3-fluoro-1-(2-hydroxyacetyl)piperidin-4-yl)oxy)-5-(4-((4-(1-(oxetan-3-yl)piperidin-4-yl)phenyl)amino)-1,3,5-triazin-2-yl)benzonitrile] the same measures were 2 nM and 292 nM.

As to `C[C@H](O)C(=O)N1CC[C@H](Oc2ccc(-c3ncnc(Nc4ccc(N5CCN(C)C[C@@H]5C)cc4)n3)cc2C#N)[C@H](F)C1` [Example 501, 5-(4-((4-((S)-2,4-dimethylpiperazin-1-yl)phenyl)amino)-1,3,5-triazin-2-yl)-2-(((3R,4S)-3-fluoro-1-((S)-2-hydroxypropanoyl)piperidin-4-yl)oxy)benzonitrile], the 50% inhibitory concentration (IC50) in experiment [1] was found to be 2 nM; in experiment [3], 457 nM. Take `N#Cc1cc(-c2ncnc(Nc3ccc(N4CCO[C@@H](CO)C4)cc3)n2)ccc1OC1CCOCC1` [Example 107, (R)-5-(4-((4-(2-(hydroxymethyl)morpholino)phenyl)amino)-1,3,5-triazin-2-yl)-2-((tetrahydro-2H-pyran-4-yl)oxy)benzonitrile]: the concentration for half-maximal inhibition (IC50) in experiment [2] was 3 nM. For `COc1cc(Nc2ncnc(-c3ccc(O[C@H]4CCN(C(=O)CO)C[C@H]4F)c(C#N)c3)n2)ccc1N1CCN(C)C[C@@H]1C` [Example 508, 5-(4-((4-((S)-2,4-dimethylpiperazin-1-yl)-3-methoxyphenyl)amino)-1,3,5-triazin-2-yl)-2-(((3R,4S)-3-fluoro-1-(2-hydroxyacetyl)piperidin-4-yl)oxy)benzonitrile], the IC50 in experiment [1] was found to be 2 nM; in experiment [3], 49 nM.
